In patent US11957687B2 (REGENERON PHARMACEUTICALS, INC., priority 2019, dated 2024):

How the values were obtained:
HSD17B13 = HSD17B13 (Homo sapiens (Human), UniProt Q7Z5P4); assay: HSD17B13 enzymatic inhibition assay (150 nM or 50 nM HSD17B13); assay type: biochemical; settings: 50 nM HSD17B13; read-out: Inhibition of 50 nM of HSD17B13 IC50
[1] = Microsome stability assay, human liver microsomes; assay type: in vitro ADME; settings: 1 μM compound, 0.5 mg/mL microsomal protein; for microsomal CLint at 1 h, 1 µM / half-life at 1 h, 1 µM / microsomal CLint at 1 μM / half-life at 1 μM: human, human liver microsomes, pooled, NADPH, 37° C.; for microsomal CLint at 1 h, 1 µM / microsomal CLint at 1 μM: read-out: Microsome Stability Human liver microsomes Cl; for half-life at 1 h, 1 µM / half-life at 1 μM: read-out: Microsome Stability Human liver microsomes T½
Method: (§1) Compounds of the disclosure were screened in microsome stability assays. For the screen, test compounds were incubated at 37° C. with either human liver microsomes (Corning; #452117) or mouse liver microsomes (XenoTech; #M1000), pooled from multiple donors, at 1 μM in the presence of a NADPH regenerating system at 0.5 mg/mL microsomal protein. Positive controls included in the assay were testosterone (3A4 substrate), propafenone (2D6) and diclofenac (2C9). Samples were removed at different time points (0, 5, 10, 20, 30 and 60 minutes) and immediately mixed with cold acetonitrile containing internal standard (IS, 200 ng/mL tolbutamide and 200 ng/mL labetalol). Test compounds incubated with microsomes for 60 minutes without the NADPH regenerating system was also included. A single point for each test condition (n=1) was obtained, and samples were analyzed by LC/MS/MS. Disappearance of the test compound was assessed based on peak area ratios of analyte/IS (no standard curve).

[2] = Microsome stability assay, mouse liver microsomes; assay type: in vitro ADME; settings: 1 μM compound, 0.5 mg/mL microsomal protein; for microsomal CLint at 1 h, 1 µM / half-life at 1 h, 1 µM / microsomal CLint at 1 μM / half-life at 1 μM: mouse, mouse liver microsomes, pooled, NADPH, 37° C.; for microsomal CLint at 1 h, 1 µM / microsomal CLint at 1 μM: read-out: Microsome Stability Mouse liver microsomes Cl; for half-life at 1 h, 1 µM / half-life at 1 μM: read-out: Microsome Stability Mouse liver microsomes T½
Method: as §1

HSD17B13, sequence (Q7Z5P4 other isoform, or with tags, fused parts or gaps): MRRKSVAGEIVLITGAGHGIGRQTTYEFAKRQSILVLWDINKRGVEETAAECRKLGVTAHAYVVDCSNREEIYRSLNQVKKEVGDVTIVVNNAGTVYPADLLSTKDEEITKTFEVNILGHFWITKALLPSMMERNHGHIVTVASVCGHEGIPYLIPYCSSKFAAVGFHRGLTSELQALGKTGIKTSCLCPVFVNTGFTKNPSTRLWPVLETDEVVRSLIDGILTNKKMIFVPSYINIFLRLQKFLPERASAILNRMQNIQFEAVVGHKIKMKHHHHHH

IC50 (HSD17B13) [nM] | Microsome Stability Human liver microsomes % Remaining @60 min [1] [%] | microsomal CLint at 1 h, 1 µM [1] [µL/min/mg] | half-life at 1 h, 1 µM [1] [min] | Microsome Stability Mouse liver microsomes % Remaining @60 min [2] [%] | microsomal CLint at 1 h, 1 µM [2] [µL/min/mg] | half-life at 1 h, 1 µM [2] [min] | microsomal CLint at 1 μM [1] [µL/min/mg] | half-life at 1 μM [1] [min] | microsomal CLint at 1 μM [2] [µL/min/mg] | half-life at 1 μM [2] [min] | Structure (SMILES)
460 | 1 |  |  | 1.01 |  |  | 154 | 9 | 154 | 9 | CCC[C@H]1Oc2cc(C)ccc2[C@@H]1NC(=O)c1ccc(C(F)(F)F)[nH]c1=O [Compound 358, N-((2R,3S)-6-methyl-2-propyl-2,3-dihydrobenzofuran-3-yl)-2-oxo-6-(trifluoromethyl)-1,2-dihydropyridine-3-carboxamide]
300 | 60.50 |  |  | 52.90 |  |  | 17 | 82 | 19.2 | 72.3 | CCC[C@@H]1C[C@@H](NC(=O)c2ccc(C(F)(F)F)[nH]c2=O)c2cc(C)ccc2N1 [Compound 361, N-((2R,4R)-6-methyl-2-propyl-1,2,3,4-tetrahydroquinolin-4-yl)-2-oxo-6-(trifluoromethyl)-1,2-dihydropyridine-3-carboxamide]
60 | 27.30 |  |  | 87 |  |  | 44.2 | 31.3 | < 9.6 | > 145 | CC[C@@H]1C[C@H](NC(=O)c2ccc(C(F)(F)F)[nH]c2=O)c2ccc(C)cc2N1 [Compound 366, N-((2R,4S)-2-ethyl-7-methyl-1,2,3,4-tetrahydroquinolin-4-yl)-2-oxo-6-(trifluoromethyl)-1,2-dihydropyridine-3-carboxamide]
370 | 51.70 | 23.4 | 59.3 | 56.20 | 18.1 | 76.4 |  |  |  |  | CCC[C@@H]1C[C@H](NC(=O)c2ccc(C(F)(F)F)[nH]c2=O)c2ccc(C)cc2N1 [Compound 368, N-((2R,4S)-7-methyl-2-propyl-1,2,3,4-tetrahydroquinolin-4-yl)-2-oxo-6-(trifluoromethyl)-1,2-dihydropyridine-3-carboxamide]
110 | 35.70 | 30.8 | 45 | 95.30 |  |  |  |  | < 9.6 | > 145 | CCC[C@@H]1C[C@@H](NC(=O)c2ccc(C(F)(F)F)[nH]c2=O)c2ccc(C)cc2N1 [Compound 369, N-((2R,4R)-7-methyl-2-propyl-1,2,3,4-tetrahydroquinolin-4-yl)-2-oxo-6-(trifluoromethyl)-1,2-dihydropyridine-3-carboxamide]
270 | 86.70 |  |  | 99.10 |  |  | < 9.6 | > 145 | < 9.6 | > 145 | Cc1ccc2c(c1)[C@H](NC(=O)c1ccc(C(F)(F)F)[nH]c1=O)C[C@@H](C)N2 [Compound 370, N-((2R,4R)-2,6-dimethyl-1,2,3,4-tetrahydroquinolin-4-yl)-2-oxo-6-(trifluoromethyl)-1,2-dihydropyridine-3-carboxamide]
40 | 1 | 643 | 2.15 | 43 | 27 | 51.3 |  |  |  |  | Cc1ccc2c(c1)SC(C)CC2NC(=O)c1ccc(C(F)(F)F)[nH]c1=O (stereo not shown) [Compound 385, N-(2,7-dimethylthiochroman-4-yl)-2-oxo-6-(trifluoromethyl)-1,2-dihydropyridine-3-carboxamide]
70 | 11 | 151 | 9.15 | 62.80 | 16.8 | 82.3 |  |  |  |  | CCC1Cc2cc(OC)ccc2C(NC(=O)c2ccc(C(F)(F)F)[nH]c2=O)C1 (stereo not shown) [Compound 390, N-(3-ethyl-6-methoxy-1,2,3,4-tetrahydronaphthalen-1-yl)-2-oxo-6-(trifluoromethyl)-1,2-dihydropyridine-3-carboxamide]

The remaining lines, values behind:

Structure (SMILES) | IC50 (HSD17B13) [nM] | Microsome Stability Human liver microsomes % Remaining @60 min [1] [%] | microsomal CLint at 1 h, 1 µM [1] [µL/min/mg] | half-life at 1 h, 1 µM [1] [min] | Microsome Stability Mouse liver microsomes % Remaining @60 min [2] [%] | microsomal CLint at 1 h, 1 µM [2] [µL/min/mg] | half-life at 1 h, 1 µM [2] [min] | microsomal CLint at 1 μM [1] [µL/min/mg] | half-life at 1 μM [1] [min] | microsomal CLint at 1 μM [2] [µL/min/mg] | half-life at 1 μM [2] [min]
CCCC1CCc2cc(Cl)ccc2C1NC(=O)c1ccc(C(F)(F)F)[nH]c1=O (stereo not drawn) [Compound 286, N-(6-chloro-2-propyl-1,2,3,4-tetrahydronaphthalen-l-yl)-2-oxo-6-(trifluoromethyl)-1,2-dihydropyridine-3-carboxamide] | 190 | 27.10 | 42.9 | 32.3 | 38.20 | 29.6 | 46.9 |  |  |  | 
CC1CCc2cc(Cl)ccc2C1NC(=O)c1ccc(C(F)(F)F)[nH]c1=O (stereo not shown) [Compound 293, N-(6-chloro-2-methyl-1,2,3,4-tetrahydronaphthalen-1-yl)-2-oxo-6-(trifluoromethyl)-1,2-dihydropyridine-3-carboxamide] | 130 | 0.14 | 231 | 6 | 33.80 | 37.9 | 36.5 |  |  |  | 
Cc1ccc2c(c1)CCC(C)C2NC(=O)c1ccc(C(F)(F)F)[nH]c1=O (stereo not shown) [Compound 294, N-(2,6-dimethyl-1,2,3,4-tetrahydronaphthalen-1-yl)-2-oxo-6-(trifluoromethyl)-1,2-dihydropyridine-3-carboxamide] | 90 | 0.10 | 643 | 2.15 | 33.80 | 33.4 | 41.5 |  |  |  | 
CCC1Cc2cc(OC)ccc2C1NC(=O)c1ccc(C(F)(F)F)[nH]c1=O (stereo not shown) [Compound 295, N-(2-ethyl-5-methoxy-2,3-dihydro-1H-inden-1-yl)-2-oxo-6-(trifluoromethyl)-1,2-dihydropyridine-3-carboxamide] | 100 | 1 | 221 | 6.26 | 69 | 12.7 | 110 |  |  |  | 
CCC1CCc2cc(Cl)ccc2C1NC(=O)c1ccc(C(F)(F)F)[nH]c1=O (stereo not shown) [Compound 297, N-(6-chloro-2-ethyl-1,2,3,4-tetrahydronaphthalen-1-yl)-2-oxo-6-(trifluoromethyl)-1,2-dihydropyridine-3-carboxamide] | 110 | 1.24 | 149 | 9.3 | 36.10 | 35.4 | 39.1 |  |  |  | 
Cc1ccc2c(c1)[C@@H](O)CC[C@H]2NC(=O)c1ccc(C(F)(F)F)[nH]c1=O [Compound 312, N-((1R,4S)-4-hydroxy-6-methyl-1,2,3,4-tetrahydronaphthalen-1-yl)-2-oxo-6-(trifluoromethyl)-1,2-dihydropyridine-3-carboxamide] | 450 | 78.40 |  |  | 96.90 |  |  | < 9.6 | > 145 | < 9.6 | > 145
CCCC1=Cc2cc(C)ccc2C1NC(=O)c1ccc(C(F)(F)F)[nH]c1=O (stereo not shown) [Compound 341, N-(5-methyl-2-propyl-1H-inden-1-yl)-2-oxo-6-(trifluoromethyl)-1,2-dihydropyridine-3-carboxamide] | 70 | 1.70 | 132 | 10.5 | 54.30 | 19.4 | 71.3 |  |  |  | 
CCC[C@H]1Oc2ccc(C)cc2[C@@H]1NC(=O)c1ccc(C(F)(F)F)[nH]c1=O [Compound 353, N-((2R,3S)-5-methyl-2-propyl-2,3-dihydrobenzofuran-3-yl)-2-oxo-6-(trifluoromethyl)-1,2-dihydropyridine-3-carboxamide] | 520 | 28.20 |  |  | 28.90 |  |  | 35.4 | 39.1 | 41.2 | 33.6
